Patent US9957270B2, “Fused pyrimidine-based hydroxamate derivatives” (Agency for Science, Technology and Research, priority 2014, dated 2018)
Where two headings read alike, the source gives them in different places.

Legend:
NCI-H522 = test: Anti-proliferative assay (cellular IC50), NCI-H522; settings: Homo sapiens, NCI-H522, read-out: In Vitro Cellular IC50 NCI-H522
Protocol: (§1) Cells were cultivated at 37° C., 5% CO2 in media containing 10% FBS and 2 mM glutamine Cells were routinely monitored with MycoAlert™ PLUS Mycoplasma Detection Kit (Lonza Walkersville, Inc.) to make sure they were mycoplasma free. Antibiotics (100 U/mL of penicillin and 100 μg/mL of streptomycin) were only added to the media used for compound dilution and cells in 96-well assay plates.
(§2) For a typical screening experiment, cells (100 μL/well) are inoculated into 96 well microtiter plates at plating densities ranging from 2,000 to 30,000 cells/well depending on the doubling time of individual cell lines and assay linearity. […] Suspension cells are treated with test compounds immediately after cell inoculation.
(§3) Test compounds are serially diluted (3-fold or 4-fold, 8-concentration) using the same media and added to the plates (15 to 25 μL/well). After 72 h of cultivation, the plates are assayed for cell cytotoxicity/viability by using the following two methods.
(§4) Cells in plates are fixed with cold trichloroacetic acid (TCA) (50% w/v in DI water, 1/4 volume of the medium in each well), and incubated at 4° C. for 1 h (adherent cells) or 2 h (suspension cells). The plates are washed 5 times (tap water×3, DI water×2) and air-dried. SRB solution 0.4% (w/v) in 1% acetic acid is added to each well (60 μL/well) and the plates are incubated at room temperature for 30 min, then washed with 1% acetic acid solution 4 times, and air-dried.
(§5) The plates are added CellTiter-Glo® Reagent (95 μL/well) and read the luminescence on a BioTek H4 reader per manufacture's protocol.
(§6) The raw data are processed using BioTek's Software Gen5 (v2.03.01) to generate inhibitory IC50 values.

MDA-MB-468 = test: Anti-proliferative assay (cellular IC50), MDA-MB-468; settings: Homo sapiens, MDA-MB-468, read-out: In Vitro Cellular IC50 MDA-MB-468
Protocol: as §1, §2, §3, §4, §5, §6

HuH-7 = test: Anti-proliferative assay (cellular IC50), HuH-7; settings: Homo sapiens, Huh-7, read-out: In Vitro Cellular IC50 HuH-7
Protocol: as §1, §2, §3, §4, §5, §6

RPMI-8226 = test: Anti-proliferative assay (cellular IC50), RPMI-8226; settings: Homo sapiens, RPMI-8226, read-out: In Vitro Cellular IC50 RPMI-8226
Protocol: as §1, §2, §3, §4, §5, §6

MDA-MB-436 = test: Anti-proliferative assay (cellular IC50), MDA-MB-436; settings: Homo sapiens, MDA-MB-436, read-out: In Vitro Cellular IC50 MDA-MB-436
Protocol: as §1, §2, §3, §4, §5, §6

U87 MG = test: Anti-proliferative assay (cellular IC50), U87 MG; settings: Homo sapiens, U-87 MG, read-out: In Vitro Cellular IC50 U87 MG
Protocol: as §1, §2, §3, §4, §5, §6

HCT 116 = test: cells; settings: Homo sapiens
Protocol: as §1, §2, §3, §4, §5, §6

BxPC-3 = test: Anti-proliferative assay (cellular IC50), BxPC-3; settings: Homo sapiens, BXPC-3, read-out: In Vitro Cellular IC50 BxPC-3
Protocol: as §1, §2, §3, §4, §5, §6

Ramos = test: Anti-proliferative assay (cellular IC50), Ramos; settings: Homo sapiens, read-out: In Vitro Cellular IC50 Ramos
Protocol: as §1, §2, §3, §4, §5, §6

SK-HEP1 = test: Anti-proliferative assay (cellular IC50), SK-HEP1; settings: Homo sapiens, SK-HEP1, read-out: In Vitro Cellular IC50 SK-HEP1
Protocol: as §1, §2, §3, §4, §5, §6

MV-4-11 = test: cells; settings: Homo sapiens
K-562 = test: Anti-proliferative assay (cellular IC50), K-562; settings: Homo sapiens
Protocol: as §1, §2, §3, §4, §5, §6

PC-3 = test: Anti-proliferative assay (cellular IC50), PC-3; settings: Homo sapiens
Protocol: as §1, §2, §3, §4, §5, §6

SUP-B15 = test: Anti-proliferative assay (cellular IC50), SUP-B15; settings: Homo sapiens, SUP-B15, read-out: In Vitro Cellular IC50 SUP-B15
Protocol: as §1, §2, §3, §4, §5, §6

PANC-1 = test: Anti-proliferative assay (cellular IC50), PANC-1; settings: Homo sapiens, PANC-1, read-out: In Vitro Cellular IC50 PANC-1
Protocol: as §1, §2, §3, §4, §5, §6

A375 = test: Anti-proliferative assay (cellular IC50), A375; settings: Homo sapiens, A-375, read-out: In Vitro Cellular IC50 A375
Protocol: as §1, §2, §3, §4, §5, §6

BT474 = test: Anti-proliferative assay (cellular IC50), BT474; settings: Homo sapiens, BT-474, read-out: In Vitro Cellular IC50 BT474
Protocol: as §1, §2, §3, §4, §5, §6

Daudi = test: Anti-proliferative assay (cellular IC50), Daudi; settings: Homo sapiens, read-out: In Vitro Cellular IC50 Daudi
Protocol: as §1, §2, §3, §4, §5, §6

HepG2 = test: Anti-proliferative assay (cellular IC50), HepG2; settings: Homo sapiens
Protocol: as §1, §2, §3, §4, §5, §6

ACHN = test: Anti-proliferative assay (cellular IC50), ACHN; settings: Homo sapiens, read-out: In Vitro Cellular IC50 ACHN
Protocol: as §1, §2, §3, §4, §5, §6

Pfeiffer = test: Anti-proliferative assay (cellular IC50), Pfeiffer; settings: Homo sapiens, read-out: In Vitro Cellular IC50 Pfeiffer
Protocol: as §1, §2, §3, §4, §5, §6

MDA-MB-231 = test: Anti-proliferative assay (cellular IC50), MDA-MB-231; settings: Homo sapiens, MDA-MB-231, read-out: In Vitro Cellular IC50 MDA-MB-231
Protocol: as §1, §2, §3, §4, §5, §6

MCF7 = test: Anti-proliferative assay (cellular IC50), MCF7; settings: Homo sapiens
Protocol: as §1, §2, §3, §4, §5, §6

MOLT-4 = test: Anti-proliferative assay (cellular IC50), MOLT-4; settings: Homo sapiens
COLO 205 = test: cells; settings: Homo sapiens
Protocol: as §1, §2, §3, §4, §5, §6

HL-60 = test: Anti-proliferative assay (cellular IC50), HL-60; settings: Homo sapiens, HL-60, read-out: In Vitro Cellular IC50 HL-60
Protocol: as §1, §2, §3, §4, §5, §6

4T1 = test: cells; settings: Mus musculus, 4T1, read-out: In Vitro Cellular IC50 4T1
Protocol: as §1, §2, §3, §4, §5, §6

HDAC1 = HDAC1 (Homo sapiens, UniProt Q13547); test: HDAC enzyme assay, recombinant HDAC1
[1] = HCT-116, 72 h, read-out: In Vitro Cellular IC50 HCT 116
[2] = HCT-116, read-out: In Vitro Cellular IC50 HCT 116
[3] = MV4-11, 72 h, read-out: In Vitro Cellular IC50 MV-4-11
[4] = MV4-11, read-out: In Vitro Cellular IC50 MV-4-11
[5] = K562, 72 h, read-out: In Vitro Cellular IC50 K-562
[6] = K562, read-out: In Vitro Cellular IC50 K-562
[7] = PC-3, 72 h, read-out: In Vitro Cellular IC50 PC-3
[8] = PC-3, read-out: In Vitro Cellular IC50 PC-3
[9] = HepG2, 72 h, read-out: In Vitro Cellular IC50 HepG2
[10] = HepG2, read-out: In Vitro Cellular IC50 HepG2
[11] = MCF7, 72 h, read-out: In Vitro Cellular IC50 MCF7
[12] = MCF7, read-out: In Vitro Cellular IC50 MCF7
[13] = MOLT-4, 72 h, read-out: In Vitro Cellular IC50 MOLT-4
[14] = MOLT-4, read-out: In Vitro Cellular IC50 MOLT-4
[15] = COLO 205, 72 h, read-out: In Vitro Cellular IC50 COLO 205
[16] = COLO 205, read-out: In Vitro Cellular IC50 COLO 205

Sequence of HDAC1 (Q13547 whole entry): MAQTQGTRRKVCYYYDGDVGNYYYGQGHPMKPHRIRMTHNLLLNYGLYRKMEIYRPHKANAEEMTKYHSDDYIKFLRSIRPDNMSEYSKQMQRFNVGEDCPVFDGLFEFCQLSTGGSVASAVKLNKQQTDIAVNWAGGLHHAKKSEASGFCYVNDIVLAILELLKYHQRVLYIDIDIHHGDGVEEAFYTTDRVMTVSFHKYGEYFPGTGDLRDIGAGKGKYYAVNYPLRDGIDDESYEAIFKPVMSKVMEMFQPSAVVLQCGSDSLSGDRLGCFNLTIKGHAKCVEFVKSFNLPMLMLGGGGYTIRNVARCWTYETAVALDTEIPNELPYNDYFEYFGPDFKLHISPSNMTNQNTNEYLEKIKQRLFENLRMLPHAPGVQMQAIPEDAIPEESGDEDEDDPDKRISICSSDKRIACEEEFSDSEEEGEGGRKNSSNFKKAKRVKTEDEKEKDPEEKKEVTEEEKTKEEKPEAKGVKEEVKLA

Compound | IC50 (NCI-H522) [nM] | IC50 (MDA-MB-468) [nM] | IC50 (RPMI-8226) [nM] | IC50 (MDA-MB-436) [nM] | IC50 (U87 MG) [nM] | IC50 (HCT 116; [1]) [nM] | IC50 (HCT 116; [2]) [nM] | IC50 (BxPC-3) [nM] | IC50 (Ramos) [nM] | IC50 (SK-HEP1) [nM] | IC50 (MV-4-11; [3]) [nM] | IC50 (MV-4-11; [4]) [nM] | IC50 (K-562; [5]) [nM] | IC50 (K-562; [6]) [nM] | IC50 (PC-3; [7]) [nM] | IC50 (PC-3; [8]) [nM] | IC50 (SUP-B15) [nM] | IC50 (PANC-1) [nM] | IC50 (A375) [nM] | IC50 (BT474) [nM] | also measured
CS(=O)(=O)N1CCN(Cc2cc3nc(-c4cccc5[nH]ncc45)nc(N4CCOCC4)c3s2)CC1 [GDC-0941, reference compound] | > 10000 | 2000 to 10000 | 2000 to 10000 | 500 to 2000 | 2000 to 10000 | 500 to 2000 | 2000 to 10000 | 500 to 2000 | 2000 to 10000 | 2000 to 10000 | 500 to 2000 | 500 to 2000 | > 10000 | > 10000 | 500 to 2000 | 500 to 2000 | 2000 to 10000 | 500 to 2000 | 500 to 2000 | < 500 | IC50 (HuH-7): 500 to 2000 nM; IC50 (Daudi): < 500 nM; IC50 (HepG2; [9]): > 10000 nM; IC50 (HepG2; [10]): > 10000 nM; IC50 (ACHN): 500 to 2000 nM; IC50 (Pfeiffer): < 500 nM; IC50 (MDA-MB-231): > 10000 nM; IC50 (MCF7; [11]): < 500 nM; IC50 (MCF7; [12]): < 500 nM; IC50 (MOLT-4; [13]): < 500 nM; IC50 (MOLT-4; [14]): < 500 nM; IC50 (COLO 205; [15]): 500 to 2000 nM; IC50 (COLO 205; [16]): 500 to 2000 nM; IC50 (HL-60): 500 to 2000 nM; IC50 (4T1): 2000 to 10000 nM
CC(C)n1cnc2c(-c3cccc(OCCCC(=O)NO)c3)nc(N3CCOCC3)nc21 [compound 1] | 500 to 2000 | 500 to 2000 | < 500 | 500 to 2000 | 500 to 2000 | < 500 | < 500 | 500 to 2000 | < 500 | 500 to 2000 | < 500 | < 500 | 500 to 2000 | 500 to 2000 | 500 to 2000 | 500 to 2000 | < 500 | 500 to 2000 | 500 to 2000 | 500 to 2000 | IC50 (HuH-7): 500 to 2000 nM; IC50 (HDAC1): 10 to 100 nM; IC50 (Daudi): < 500 nM; IC50 (HepG2; [9]): 500 to 2000 nM; IC50 (HepG2; [10]): 500 to 2000 nM; IC50 (ACHN): 500 to 2000 nM; IC50 (Pfeiffer): < 500 nM; IC50 (MDA-MB-231): 500 to 2000 nM; IC50 (MCF7; [11]): 500 to 2000 nM; IC50 (MCF7; [12]): 500 to 2000 nM; IC50 (MOLT-4; [13]): < 500 nM; IC50 (MOLT-4; [14]): < 500 nM; IC50 (COLO 205; [15]): 500 to 2000 nM; IC50 (COLO 205; [16]): 500 to 2000 nM; IC50 (HL-60): < 500 nM; IC50 (4T1): 500 to 2000 nM
CCn1c(CN(C)Cc2ccc(C(=O)NO)cc2)nc2c(N3CCOCC3)nc(-c3cnc(N)nc3)nc21 [compound 7] | 2000 to 10000 | < 500 | 500 to 2000 | 2000 to 10000 | 2000 to 10000 | 500 to 2000 | 500 to 2000 | 500 to 2000 | 500 to 2000 | 500 to 2000 | 500 to 2000 | 500 to 2000 | 500 to 2000 | 500 to 2000 | 500 to 2000 | 500 to 2000 | < 500 | 2000 to 10000 | 2000 to 10000 | < 500 | IC50 (HDAC1): 10 to 100 nM; IC50 (HepG2; [9]): 500 to 2000 nM; IC50 (HepG2; [10]): 500 to 2000 nM; IC50 (ACHN): 2000 to 10000 nM; IC50 (Pfeiffer): < 500 nM; IC50 (MDA-MB-231): 2000 to 10000 nM; IC50 (MCF7; [11]): < 500 nM; IC50 (MCF7; [12]): < 500 nM; IC50 (MOLT-4; [13]): 500 to 2000 nM; IC50 (MOLT-4; [14]): 500 to 2000 nM; IC50 (COLO 205; [15]): 500 to 2000 nM; IC50 (COLO 205; [16]): 500 to 2000 nM; IC50 (HL-60): 500 to 2000 nM; IC50 (4T1): 2000 to 10000 nM
